Patent US20220249476A1, “MutL LOSS PREDICTS SENSITIVITY TO CDK4/6 INHIBITORS IN CANCER” (Baylor College of Medicine, priority 2018, published 2022)

Legend:
ER+ PDX lines (BCaPE) = settings: four CENMP- PDX lines compared with three CENMP+ lines; p=0.02; cited from earlier work
MCF7 cells [1] = assay: Growth assay (Alamar blue) in MCF7 cells with knockdown of DDR genes; format: cell-based, human; settings: for sensitivity (growth inhibition relative to vehicle treated cells): 100 nM fulvestrant, 1 μM Palbociclib
Protocol: (§1) ZR75.1 and MCF7 parental cells were from ATCC, 2015 and 2017 respectively, and tested for mycoplasma contamination upon arrival using the Lonza Mycoalert Plus Kit (CAT# LT07-710) as per the manufacturer's instructions, and annually since. Both lines were maintained in RPMI 1640 1X w/ L-glutamine and 1% Penicillin/Streptomycin (Sigma-Aldrich, CAT#P4333—100 mL). Cell lines used for experiments were <20 passages. Transient transfections with esiRNA (Sigma-Aldrich) towards human NEIL2 (CAT#EHU158461), CETN2 (CAT#EHU137031), ERCC1 (CAT#EHU156971), RAD23B (CAT#EHU145881) and POLM (CAT#SASI_Hs02_003344553), or scrambled control used at 50 nmoles/L each were delivered using Polypluys jetPRIME® transfection reagent (CAT#114-07) as per the manufacturer's instructions. Cells were plated for experiments 48 hrs after transfection. Stable selection with puromycin after infection with lentivirus harboring RNAi oligos (ABM) against human NEIL2 (CAT#i014980a), CETN2 (CAT#i004479a), and ERCC1 (CAT#i007023a) or scrambled control (CAT#i000238c) was conducted using manufacturer's protocol. Growth assays were repeated independently in triplicate as previously reported (50) using Alamar blue to detect cell viability. Final readings were between 4-6 days after initial drug treatment and fold change plotted for analysis. Fulvestrant(Fisher Scientific CAT#506242), 4-OHT(Sigma-Aldrich CAT#H7904), Palbociclib (ThermoFisher CAT#508548) and Abemaciclib (ThermoFisher CAT#NC0577560), dissolved in DMSO, and β-estradiol (Sigma-Aldrich CAT#E2758-1G), dissolved in water, at 10 mmoles/L were stored long term at −80 C with working stocks at −20 C. Cells were treated 24 hours after plating with fresh drug added every 48 hrs until the end of the experiment. Estradiol addition experiments were conducted in phenol red-free DMEM with 10% charcoal stripped serum.

ZR-75 cells = assay: Growth assay (Alamar blue) in ZR-75 cells with knockdown of DDR genes; format: cell-based, human; settings: siCETN2, siNEIL2 and siERCC1 ZR-75 cells (transient siRNA) vs siScr; media containing full serum
Protocol: as §1, with “Fulvestrant(Fisher Scientific CAT#506242), 4-OHT(Sigma-Aldrich CAT#H7904), Palbociclib (ThermoFisher CAT#508548) and Abemaciclib (ThermoFisher CAT#NC0577560), dissolved in DMSO, and β-estradiol (Sigma-Aldrich CAT#E2758-1G), dissolved in water, at 10 mmoles/L were stored long term at −80 C with working stocks at −20 C. Cells were treated 24 hours after plating with fresh drug added every 48 hrs until the end of the experiment. Estradiol addition experiments were conducted in phenol red-free DMEM with 10% charcoal stripped serum.” left out

MCF7 cells [2] = assay: Ki67 immunofluorescence in MCF7 cells before and after fulvestrant treatment; format: cell-based, human; settings: siCETN2, siNEIL2, siERCC1 MCF7 cells vs siScr control; 100 nM fulvestrant, 48 hours
Protocol: (§2) FIGS. 17A-17E. Dysregulation of CETN2, NEIL2 and ERCC1 expression in ER+ breast cancer cells alters regulation of G1/S transition of the cell cycle. FIG. 17A & FIG. 17D) Histograms representing percentage of siScr, siCETN2, siNEIL2, siERCC1 and siMLH1 MCF7 cells that are Ki67 (FIG. 17A) and PCNA (FIG. 17D) positive after 48 hours of treatment with 100 nM of fulvestrant. Columns represent the mean and error bars the standard deviation. Student's t-test determined p-values. FIG. 17B-FIG. 17C) Boxplots indicating levels of CDK4 mRNA and PCNA protein level in CETN2, ERCC1, NEIL2, PRKDC proficient (CEN+PRKDCwt) and deficient (CEN-PRKDCmut) ER+ breast tumors based on values from microarray and RPPA data from TCGA. Wilcoxon Rank Sum test determined p-values. FIG. 17E) Histograms depicting percent growth inhibition in fulvestrant and abemaciclib (CDK4/6i)-treated MCF7 cells stably selected for RNAi-mediated knockdown of control, CETN2, ERCC1 or NEIL2, relative to vehicle treated cells. […] Student's t-test determined p-values.
(§3) RNA from cell lines was extracted using the Qiagen RNeasy Mini Kit (CAT#74106) and converted to cDNA using Bio-Rad Reverse Transcriptase iScript (CAT#TX1708891BAY), both following manufacturers' instructions. cDNA was quantified by qPCR using Bio-Rad SsoAdvanced Universal SYBR Green supermix (CAT#17525272) at the manufacturers specifications. […]

MCF7 cells [3] = assay: FACS analysis for PCNA in MCF7 cells after fulvestrant treatment; format: cell-based, human; settings: MCF7 cells with stable knockdown of CETN2, NEIL2, ERCC1 and MLH1 relative to control cells; 100 nM fulvestrant
Protocol: as §2, §3

| SMILES | tumor viability after treatment (AUC) (ER+ PDX lines (BCaPE)) | growth phenotype under treatment (MCF7 cells [1]; MCF7 cells stably selected with lentiviral RNAi against CETN2, NEIL2, ERCC1) | growth response to treatment (MCF7 cells [1]; MCF7 cells with siRNA knockdown of negative control genes RAD23B and POLM) | sensitivity (growth inhibition relative to vehicle treated cells) (MCF7 cells [1]; MCF7 cells with stable knockdown of CETN2, NEIL2 or ERCC1) | sensitivity (growth inhibition relative to vehicle treated cells) (MCF7 cells [1]; control MCF7 cells (scrambled RNAi)) | growth inhibition in response to treatment (MCF7 cells [1]; siCETN2, siNEIL2 and siERCC1 MCF7 cells (transient siRNA) vs siScr, media containing full serum) | growth inhibition in response to treatment (ZR-75 cells) | Ki67 inhibition in response to treatment (MCF7 cells [2]) | PCNA positivity after treatment (MCF7 cells [3]) |
| --- | --- | --- | --- | --- | --- | --- | --- | --- | --- |
| CC(C)(C#N)c1cc(Cn2cncn2)cc(C(C)(C)C#N)c1 [anastrozole] | significantly higher tumor viability | – | – | – | – | – | – | – | – |
| C[C@]12CC[C@@H]3c4ccc(O)cc4C[C@@H](CCCCCCCCC[S+]([O-])CCCC(F)(F)C(F)(F)F)[C@H]3[C@@H]1CC[C@@H]2O (stereo partly drawn) [fulvestrant, Fulvestrant] | – | Fulvestrant-independent | did not alter growth response | resistance | comparable sensitivity | significant lack of growth inhibition | significant lack of growth inhibition | profound lack of Ki67 inhibition | Increased PCNA positivity |
